Experimental findings from patent publication US20220242850A1, “PHTHALAZIN-1-ONE DERIVATIVES USEFUL AS GRK2 INHIBITORS” (Janssen Pharmaceutica NV, priority 2019, published 2022) are described below.

A word on the pIC50: it is −log10 of the IC50, conventionally taken in molar units.

SMILES strings stand for the structures. pIC50: −log10 of the molar value.

The target of this assay is T1, GRK2 (Homo sapiens, UniProt P25098).
T1 sequence (P25098 1-689): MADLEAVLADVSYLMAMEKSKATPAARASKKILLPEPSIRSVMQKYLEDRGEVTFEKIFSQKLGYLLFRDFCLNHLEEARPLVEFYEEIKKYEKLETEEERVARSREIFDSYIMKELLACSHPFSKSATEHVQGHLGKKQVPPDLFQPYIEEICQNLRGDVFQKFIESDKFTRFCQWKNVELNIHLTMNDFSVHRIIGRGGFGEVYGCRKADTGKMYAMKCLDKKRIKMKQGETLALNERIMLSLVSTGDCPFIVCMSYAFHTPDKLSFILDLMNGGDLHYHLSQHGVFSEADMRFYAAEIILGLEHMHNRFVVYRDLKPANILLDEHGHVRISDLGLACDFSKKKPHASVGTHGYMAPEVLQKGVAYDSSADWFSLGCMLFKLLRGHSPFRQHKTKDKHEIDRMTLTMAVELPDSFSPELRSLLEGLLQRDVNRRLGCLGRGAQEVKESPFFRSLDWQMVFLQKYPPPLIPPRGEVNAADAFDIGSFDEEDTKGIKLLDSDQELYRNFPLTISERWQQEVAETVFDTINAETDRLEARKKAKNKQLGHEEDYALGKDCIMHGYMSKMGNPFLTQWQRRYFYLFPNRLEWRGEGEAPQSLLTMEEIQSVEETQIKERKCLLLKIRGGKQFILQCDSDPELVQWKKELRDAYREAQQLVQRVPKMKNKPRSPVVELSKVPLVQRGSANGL
As to the kind of experiment: hGRK2 LANCE Ultra In Vitro Assay. It is filed as biochemical. As to conditions: hGRK2 LANCE Ultra Assay IC50, 10 nM GRK2; ATP 30 or 600 μM (not stated which). As to the method:
G-protein coupled receptor kinases (GR Kinases) desensitize activated G-protein coupled receptors (GPCRs), by phosphorylation of cytoplasmic loops or carboxyl-terminal tails of GPCRs. GRK2 is one of the 6 different GR kinases and is implicated in heart failure and diabetes.
This assay is sensitive and requires as low as 10 nM enzyme, in a total volume of 10 μL. In addition, the ATP concentration can be varied over a broad range, without interfering with the assay or changing the assay condition. […] Testing inhibitors routinely at both high and low ATP concentrations also enables identification of potential non-ATP competitive inhibitors.
Paroxetine was used as the reference compound in this assay.
Test compounds were dissolved in DMSO at 1 mM and were 3-fold serial diluted. The compound DMSO solutions were then added (100 nL) into a plate well using an acoustic dispenser. To each well was then added 20 nM GRK2 (5 μL) in assay buffer (20 mM HEPES, pH 7.5, 10 mM MgCl2, 0.001% Tween-20®). The plate was sealed and centrifuged at 1000 rpm for 1 min. The plate and wells containing a mixture of GRK2 and test compound were incubated at ambient temperature for 30 min (prior to initializing the enzymatic reaction).
Enzyme reactions were initiated by the addition of 4.9 μL Substrates/Eu-Ab mix to each well. […] Final concentrations of reagents in the assays were as follows: 20 mM HEPES, pH 7.5; 10 mM MgCl2; 0.001% Tween-2® (w/v), 30 or 600 μM ATP; 200 nM ULight-peptide; 4 nM Eu-Ab; 10 nM GRK2; and 1% DMSO.
The plates were sealed and centrifuged at 1000 rpm for 1 min. For reactions at low ATP concentration (30 μM), reaction mixtures were incubated at ambient temperature for 120 min. For reactions at high ATP concentration (600 μM), reaction mixtures were incubated at ambient temperature for 60 min.
The enzyme reactions were quenched by addition of 10 μL of 12 mM EDTA in 1× LANCE detection solution to each well. The plates were then incubated at ambient temperature for 30 min.
The raw HTRF data were converted to % active as follows:
% active=(sample−NC)/(PC−NC)*100
where NC is the mean of negative control (reactions without GRK2), and PC is the mean of positive control (reactions with GRK2 but without inhibitor). IC50 values were determined from a 4-parameter fit, using the following equation:
Y=Bottom+(Top−Bottom)/(1+10^(Log IC50-X)*Hill slope)),
where X=log10 of the compound concentration.
On the technique in general: Time-resolved FRET reads energy transfer from a long-lived donor to a nearby acceptor.
`O=C(COc1cccc(Cn2ncc3ccc(-c4cn[nH]c4)cc3c2=O)c1)N1CCOCC1` [Compound 6, 2-[[3-(2-Morpholino-2-oxo-ethoxy)phenyl]methyl]-7-(1H-pyrazol-4-yl)phthalazin-1-one] had a pIC50 of 8.10.
With `O=C(NC1CC1)c1cccc(Cn2ncc3ccc(-c4cn[nH]c4)cc3c2=O)c1` [Compound 7, N-Cyclopropyl-3-[[1-oxo-7-(1H-pyrazol-4-yl)phthalazin-2-yl]methyl]benzamide] the figure was 8.00; with `C#CCNC(=O)c1cccc(Cn2ncc3ccc(-c4cn[nH]c4)cc3c2=O)c1` [Compound 8, 3-[[1-Oxo-7-(1H-pyrazol-4-yl)phthalazin-2-yl]methyl]-N-prop-2-ynyl-benzamide], 8.00; with `COc1cccc(Cn2ncc3ccc(-c4cn[nH]c4)c(F)c3c2=O)c1` [Compound 9, 8-Fluoro-2-[(3-methoxyphenyl)methyl]-7-(1H-pyrazol-4-yl)phthalazin-1-one], 7.96.
`COc1cccc(Cn2ncc3ccc(-c4cn[nH]c4)c(C#N)c3c2=O)c1` [Compound 10, 3-[(3-Methoxyphenyl)methyl]-4-oxo-6-(1H-pyrazol-4-yl)phthalazine-5-carbonitrile] gave a pIC50 of 7.96.
For `CC(C)NC(=O)c1cc(Cn2ncc3ccc(-c4cn[nH]c4)cc3c2=O)ccc1F` [Compound 11, 2-Fluoro-N-isopropyl-5-[[1-oxo-7-(1H-pyrazol-4-yl)phthalazin-2-yl]methyl]benzamide], the pIC50 is 7.92.
With `CN(C)C(=O)COc1cccc(Cn2ncc3ccc(-c4cn[nH]c4)cc3c2=O)c1` [Compound 12, N,N-Dimethyl-2-[3-[[1-oxo-7-(1H-pyrazol-4-yl)phthalazin-2-yl]methyl]phenoxy]acetamide] the figure was 7.89; with `O=C(NC1CC1)c1cc(Cn2ncc3ccc(-c4cn[nH]c4)cc3c2=O)ccc1F` [Compound 13, N-Cyclopropyl-2-fluoro-5-[[1-oxo-7-(1H-pyrazol-4-yl)phthalazin-2-yl]methyl]benzamide], 7.74; with `C#CCOc1cccc(Cn2ncc3ccc(-c4cn[nH]c4)c(F)c3c2=O)c1` [Compound 14, 8-Fluoro-2-[(3-prop-2-ynoxyphenyl)methyl]-7-(1H-pyrazol-4-yl)phthalazin-1-one], 7.60.
With `COc1cccc(C(CO)n2ncc3ccc(-c4cn[nH]c4)cc3c2=O)c1` (centres unmarked) [Compound 15, 2-[2-Hydroxy-1-(3-methoxyphenyl)ethyl]-7-(1H-pyrazol-4-yl)phthalazin-1-one] the figure was 7.48; with `COc1cccc(C(C(=O)O)n2ncc3ccc(-c4cn[nH]c4)cc3c2=O)c1` (centres unmarked) [Compound 18, 2-(3-Methoxyphenyl)-2-[1-oxo-7-(1H-pyrazol-4-yl)phthalazin-2-yl]acetic acid], less than 4.70.
